Test results taken from patent US20260240820A1, “METHOD FOR CONTROLLING MEMBRANE POTENTIAL-DEPENDENT ION CHANNEL THROUGH TYPE I TASTE RECEPTORS (T1RS)” (ION CHAT RESEARCH CORPORATE, priority 2022, published 2026).
“Also recorded” adds a separate entry of the source. Like-named read-outs stand apart in the source and are kept apart here.

Tests used:
[1] = system: VGSC of SH-SY5Y cells (Nav1.7, Nav1.2, Nav1.3); assay: Patch-clamp recording of VGSC current in differentiated SH-SY5Y cells; format: cell-based, human; conditions: 5 mM
VGSC = assay: Patch-clamp recording of VGSC current, cell type not specified or several cell types (summary statements); format: cell-based, human
Nav1.5 = assay: Patch-clamp (voltage clamp) recording of VGSC current in HEK cells stably expressing Nav1.5
HEK Nav1.5 cells = assay: GFP-Tubulin / GFP-Actin cytoskeleton observation in HEK Nav1.5 cells; format: cell-based, human; conditions: MSG 5 mM
[2] = system: voltage-dependent potassium channel current of SH-SY5Y cells; assay: Voltage clamp recording of outward potassium current in SH-SY5Y cells; format: cell-based, human; conditions: 5 mM
Text: The inward current represents the transient peak observed immediately after stimulation, while the outward current measures the average value during the last 50 ms of rectangular pulse stimulation.

[3] = system: Nav1.5 in T1R1-silenced HEK cells; assay: VGSC current in HEK Nav1.5 cells with silenced T1R1; format: cell-based, human; conditions: 5 mM for MSG2.5
Kv1.2 = assay: Patch-clamp recording of Kv1.2 potassium current in HEK cells expressing Kv1.2; format: cell-based, human
Procedure: The effects of Aβ peptides or umami substances on sustained potassium currents (VGKC) in cardiac myocytes can be studied using HEK cells expressing VGKC (such as Kv1.2, Kv3.2, Kv3.3) as well as SH-SY5Y cells expressing endogenous T1R GPCRs. For instance, as shown in the implementation example in (FIG. 36B), Aβ peptides were applied to VGKC-expressing human cultured cells, and VGKC currents were recorded using ramp-like or rectangular voltage waveforms via the patch-clamp technique. This allowed measurement of the changes (inhibition) in VGKC currents caused by Aβ peptides. Similar inhibition studies on VGKC can be conducted using umami substance L-glutamate sodium (MSG) (FIG. 36A).
As shown in (FIG. 37), Aβ1-42 peptide, unlike Aβ25-35 targeting T1R3, interacts with T1R1 and inhibits VGSC currents (FIGS. 37D, E).

## N[C@@H](CCC(=O)O)C(=O)[O-].[Na+] [MSG, monosodium glutamate]
[1]
  Inactivation of VGSC current: delayed; also recorded: The inactivation speed of VGSC slows in 2 out of 3 SH-SY5Y cells
VGSC
  Effect on VGSC inactivation: delays the inactivation of VGSC
  Effects on VGSCs: Transient enhancement of VGSC; also recorded: Left shift of the I-V curve
VGSC; 5 mM
  VGSC I-V curve: 5 mM MSG shifts the VGSC I-V curve to a more hyperpolarized direction.
VGSC; 10 mM
  Delay of VGSC inactivation: This delaying effect even more evident at 10 mM MSG.
VGSC; VGSC inhibited by more than 80% by dichlorprop
  Inactivation curve of VGSC shifted by dichlorprop: partially recovered
VGSC; cells pre-treated with aspartame or saccharin
  Suppression / leftward S-S shift of VGSC caused by artificial sweeteners: partially reversed
VGSC; listed as L-Glu (MSG)
  Effects on VGSCs: Delay in VGSC inactivation
Nav1.5; 5 mM
  Inactivation process of transient VGSC current: significantly delayed; also recorded: This delay in inactivation speed more pronounced in Nav1.5 cells
Nav1.5; 10 mM, after CK2 inhibitor TBB
  VGSC current suppressed by TBB: partially recovered from TBB suppression
Nav1.5; after TBB
  S-S curve shifted by TBB: partially reversed the leftward shift caused by TBB
HEK Nav1.5 cells
  Microtubule fibrous structure (GFP-Tubulin): disappearance of microtubule-like structures; also recorded: microtubule structure disappeared
[2]
  Effect on outward potassium current: reduces the voltage-dependent potassium channel current; also recorded: decrease in outward currents
[3]
  Effect on VGSC currents in T1R1-silenced cells: MSG had no effect on VGSC enhancement in T1R1 silenced cells.
Kv1.2
  Effect on voltage gated K+ channel (Kv1.2) current: Inhibition of Voltage gated
